This assay concerns the target T1, hTRESK (TWIK-related spinal cord K+ channel, K2P18.1) (Homo sapiens, UniProt Q7Z418).
T1 construct: gene KCNK18; homodimeric hTRESK WT expressed in Xenopus laevis oocytes
T1 sequence (Q7Z418 1-384): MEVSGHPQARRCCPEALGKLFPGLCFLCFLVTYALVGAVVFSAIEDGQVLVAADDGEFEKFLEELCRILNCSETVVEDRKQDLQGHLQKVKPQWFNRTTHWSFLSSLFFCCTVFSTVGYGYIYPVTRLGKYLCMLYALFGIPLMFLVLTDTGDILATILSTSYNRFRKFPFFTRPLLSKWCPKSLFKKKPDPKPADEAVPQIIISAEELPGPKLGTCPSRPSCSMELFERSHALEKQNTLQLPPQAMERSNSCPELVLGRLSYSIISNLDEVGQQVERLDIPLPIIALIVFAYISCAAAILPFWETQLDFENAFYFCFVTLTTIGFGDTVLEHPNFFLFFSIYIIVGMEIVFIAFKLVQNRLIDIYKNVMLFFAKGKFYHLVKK
In words: TEVC dose-response in Xenopus oocytes, supported by alanine scan. It is filed as cell-based.

Usually EC50 stands for the concentration needed to bring the measured effect to its halfway point. Higher therefore signals a need for much substance.

Compound `Oc1ccc(Cl)c2cccnc12` [clx, 5-chloro-8-hydroxyquinoline] showed an EC50 of 64 ± 11 µM.

Source of the values: PMC10354012, “Cloxyquin activates hTRESK by allosteric modulation of the selectivity filter” (Communications Biology, 2023).
